# Results from ChEMBL document CHEMBL3885881, “DrugMatrix”.
# Species on record: Rattus norvegicus
# Test: DrugMatrix - Regimen: Daily Repeat
# Assay type: toxicity, organism-based, Sprague-Dawley
# Set-up: regimen Daily Repeat, gender Male, age 6-8 weeks
# Details: in vivo, po, 60 mg/kg, route oral GAVAGE, dose level Low, vehicle 100 % WATER; for ABSOLUTE BASOPHIL / ABSOLUTE EOSINOPHIL / ABSOLUTE LYMPHOCYTE / ABSOLUTE MONOCYTE / ABSOLUTE SEGMENTED NEUTROPHIL / BASOPHIL / EOSINOPHIL / ERYTHROCYTE COUNT / HEMATOCRIT / HEMOGLOBIN / LEUKOCYTE COUNT / LYMPHOCYTE / MEAN CORPUSCULAR HEMOGLOBIN / MEAN CORPUSCULAR HEMOGLOBIN CONCENTRATION / MEAN CORPUSCULAR VOLUME / MONOCYTE / NEUTROPHIL / NUCLEATED RED BLOOD CELLS / PLATELET COUNT: tissue Blood; for ALANINE AMINOTRANSFERASE / ALBUMIN / ALKALINE PHOSPHATASE / ASPARTATE AMINOTRANSFERASE / BLOOD UREA NITROGEN / CARBON DIOXIDE / CHLORIDE / CHOLESTEROL / CREATINE PHOSPHOKINASE / CREATININE / GLUCOSE / LACTATE DEHYDROGENASE / LIPASE / PHOSPHORUS / POTASSIUM / SODIUM / TOTAL BILIRUBIN / TOTAL PROTEIN / URIC ACID: tissue Plasma
smiles,measurement,setting,value
"C=C(Cl)Cl [1,1-DICHLOROETHENE]",ABSOLUTE BASOPHIL,"72 h, time 3 day",0 CELLS/uL
same,ABSOLUTE EOSINOPHIL,"72 h, time 3 day",51.33 CELLS/uL
same,ABSOLUTE LYMPHOCYTE,"72 h, time 3 day",13010.33 CELLS/uL
same,ABSOLUTE MONOCYTE,"72 h, time 3 day",288.67 CELLS/uL
same,ABSOLUTE SEGMENTED NEUTROPHIL,"72 h, time 3 day",1149.67 CELLS/uL
same,BASOPHIL,"72 h, time 3 day",0%
same,EOSINOPHIL,"72 h, time 3 day",0.33%
same,ERYTHROCYTE COUNT,"72 h, time 3 day",5.5 x10E6/uL
same,HEMATOCRIT,"72 h, time 3 day",34%
same,HEMOGLOBIN,"72 h, time 3 day",13.53 G/DL
same,LEUKOCYTE COUNT,"72 h, time 3 day",14.5 x10E3/uL
same,LYMPHOCYTE,"72 h, time 3 day",89.67%
same,MEAN CORPUSCULAR HEMOGLOBIN,"72 h, time 3 day",24.63 pg
same,MEAN CORPUSCULAR HEMOGLOBIN CONCENTRATION,"72 h, time 3 day",39.83 G/DL
same,MEAN CORPUSCULAR VOLUME,"72 h, time 3 day",61.83 fL
same,MONOCYTE,"72 h, time 3 day",2%
same,NEUTROPHIL,"72 h, time 3 day",8%
same,NUCLEATED RED BLOOD CELLS,"72 h, time 3 day",0.33 /100WBC
same,PLATELET COUNT,"72 h, time 3 day",1358.33 x10E3/uL
same,ALANINE AMINOTRANSFERASE,"72 h, time 3 day",52 u/L
same,ALBUMIN,"72 h, time 3 day",4.13 G/DL
same,ALKALINE PHOSPHATASE,"72 h, time 3 day",441.67 u/L
same,ASPARTATE AMINOTRANSFERASE,"72 h, time 3 day",84.67 u/L
same,BLOOD UREA NITROGEN,"72 h, time 3 day",15 mg/dL
same,CARBON DIOXIDE,"72 h, time 3 day",24.33 mmol/L
same,CHLORIDE,"72 h, time 3 day",102 MEQ/L
same,CHOLESTEROL,"72 h, time 3 day",73.33 mg/dL
same,CREATINE PHOSPHOKINASE,"72 h, time 3 day",314 u/L
same,CREATININE,"72 h, time 3 day",0.14 mg/dL
same,GLUCOSE,"72 h, time 3 day",162 mg/dL
same,LACTATE DEHYDROGENASE,"72 h, time 3 day",291.33 u/L
same,LIPASE,"72 h, time 3 day",9 u/L
same,PHOSPHORUS,"72 h, time 3 day",13 mg/dL
same,POTASSIUM,"72 h, time 3 day",6.27 MEQ/L
same,SODIUM,"72 h, time 3 day",144.17 MEQ/L
same,TOTAL BILIRUBIN,"72 h, time 3 day",0.13 mg/dL
same,TOTAL PROTEIN,"72 h, time 3 day",5.77 G/DL
same,URIC ACID,"72 h, time 3 day",1.43 mg/dL
same,ABSOLUTE BASOPHIL,"120 h, time 5 day",0 CELLS/uL
same,ABSOLUTE EOSINOPHIL,"120 h, time 5 day",128.33 CELLS/uL
same,ABSOLUTE LYMPHOCYTE,"120 h, time 5 day",16922 CELLS/uL
same,ABSOLUTE MONOCYTE,"120 h, time 5 day",76.33 CELLS/uL
same,ABSOLUTE SEGMENTED NEUTROPHIL,"120 h, time 5 day",1473.33 CELLS/uL
same,BASOPHIL,"120 h, time 5 day",0%
same,EOSINOPHIL,"120 h, time 5 day",0.67%
same,ERYTHROCYTE COUNT,"120 h, time 5 day",5.28 x10E6/uL
same,HEMATOCRIT,"120 h, time 5 day",33.8%
same,HEMOGLOBIN,"120 h, time 5 day",13.87 G/DL
same,LEUKOCYTE COUNT,"120 h, time 5 day",18.6 x10E3/uL
same,LYMPHOCYTE,"120 h, time 5 day",91.33%
same,MEAN CORPUSCULAR HEMOGLOBIN,"120 h, time 5 day",26.23 pg
same,MEAN CORPUSCULAR HEMOGLOBIN CONCENTRATION,"120 h, time 5 day",41.07 G/DL
same,MEAN CORPUSCULAR VOLUME,"120 h, time 5 day",63.9 fL
same,MONOCYTE,"120 h, time 5 day",0.33%
same,NEUTROPHIL,"120 h, time 5 day",7.67%
same,NUCLEATED RED BLOOD CELLS,"120 h, time 5 day",0 /100WBC
same,PLATELET COUNT,"120 h, time 5 day",1031 x10E3/uL
same,ALANINE AMINOTRANSFERASE,"120 h, time 5 day",56.67 u/L
same,ALBUMIN,"120 h, time 5 day",4.23 G/DL
same,ALKALINE PHOSPHATASE,"120 h, time 5 day",282 u/L
same,ASPARTATE AMINOTRANSFERASE,"120 h, time 5 day",78 u/L
same,BLOOD UREA NITROGEN,"120 h, time 5 day",16.67 mg/dL
same,CARBON DIOXIDE,"120 h, time 5 day",23.67 mmol/L
same,CHLORIDE,"120 h, time 5 day",103.67 MEQ/L
same,CHOLESTEROL,"120 h, time 5 day",71.67 mg/dL
same,CREATINE PHOSPHOKINASE,"120 h, time 5 day",168.67 u/L
same,CREATININE,"120 h, time 5 day",0.22 mg/dL
same,GLUCOSE,"120 h, time 5 day",147.33 mg/dL
same,LACTATE DEHYDROGENASE,"120 h, time 5 day",101.67 u/L
same,LIPASE,"120 h, time 5 day",9.33 u/L
same,PHOSPHORUS,"120 h, time 5 day",13.27 mg/dL
same,POTASSIUM,"120 h, time 5 day",6.62 MEQ/L
same,SODIUM,"120 h, time 5 day",147.33 MEQ/L
same,TOTAL BILIRUBIN,"120 h, time 5 day",0.2 mg/dL
same,TOTAL PROTEIN,"120 h, time 5 day",5.9 G/DL
same,URIC ACID,"120 h, time 5 day",1.67 mg/dL
